Remaining activity, IC50 and Ki data for eleven molecules are collected here from PMC12655252, “Synthesis of 1H-Pyrrolo[3,2-g]isoquinoline Derivatives as Ligands Targeting Haspin Kinase” (Molecules, 2025).

The target of one experiment is T1, HsGSK3β (Homo sapiens, UniProt P49841).
T1 construct: made in house; host or cells: Sf9 insect cells (baculovirus)
Kind of experiment: ADP-Glo in vitro kinase inhibition assay, GSK3β. Format: biochemical. As to conditions: 10 μM ATP, read-out: GSK3 % residual activity; for remaining activity at 1 µM: 1 μM compound; for remaining activity at 10 µM: 10 μM compound. As for the experimental part: (§1) We previouly reported that substitution at the 3-position with halogen atoms or pyridinyl or formyl groups was compatible with high potency toward Haspin kinase. To check if the current structural changes were in line with potent Haspin inhibition and high selectivity, enabling consideration of these compounds as possible targeting ligands for the PROTAC approach, compounds 2, 3, 8–11, and 15–17 were evaluated toward a panel of eight protein kinases, including Haspin, as well as other kinases known to be frequently cross-inhibited (CLK1, DYRK1A, CDK9/Cyclin T, GSK-3β, CK1ε, CDK5/p25, and Pim1) (Table 1). The percentage of residual kinase activity was evaluated at 10 μM and 1 μM compound concentrations. […].
(§2) Kinase inhibition was tested in 384-well plates using the ADP-GloTM assay kit (Promega, Madison, WI, USA) according to the procedure recommended by the manufacturer. Reactions were set up in a final volume of 6 μL in an appropriate kinase buffer (10 mM MgCl2, 1 mM EGTA, 1 mM DTT, 25 mM Tris-HCl pH 7.5, 50 μg/mL heparin) with either protein or peptide as the substrate in the presence of 10 μM ATP. To stop the kinase reaction, 6 μL of ADP-GloTM Kinase Reagent was added after 30 min at 30 °C. Then, after 50 min of incubation at room temperature (RT), 12 μL of Kinase Detection Reagent was added. The transmitted signal was measured after 1 h at RT using the Envision (Perkin Elmer, Waltham, MA, USA) microplate luminometer and expressed in relative light units (RLU). In order to determine the half-maximal inhibitory concentration (IC50), all assays were performed in duplicate in the absence or presence of increasing doses of the tested compounds. GraphPad Prism10 software (GraphPad Software, San Diego, CA, USA) was used to fit dose–response curves and to determine the IC50 values. Kinase activities are given as percentages of maximal activity, i.e., measured in the absence of inhibitor. Peptide substrates were obtained from Proteogenix (Schiltigheim, France).
(§3) The following protein kinases were analyzed in this study: CDK5/p25 (human, vector pGEX-2T, expressed in bacteria; kindly provided by Dr. J. H. Wang) was assayed with 0.8 μg/μL of histone H1 as substrate; HsCDK9/CyclinT (NP_001252/KAI4065659, cloned in pTEFb vector, expressed by baculovirus in Sf9 insect cells) were assayed with 0.27 μg/μL of the following peptide: […], as substrate; HsCK1ε (NP_001885, cloned in pFAST-BAC vector, expressed in Sf9 insect cells) was assayed with 0.022 μg/μL of the following peptide: […]pAYSITA (“Sp” stands for phosphorylated serine) as CK1-specific substrate; HsGSK3β (AAH12760, cloned in pFAST-BAC, expressed by baculovirus in Sf9 insect cells) were assayed with 0.010 μg/μL of GS-1 peptide, a GSK-3-selective substrate ([…]pEDEEE); HsHaspin-kd (NP_114171, kinase domain, amino acids 470–798 cloned in pGEX-6P-3, expressed in bacteria) was assayed with 0.007 μg/μL of histone H3 (1–21) peptide ([…]) as substrate; Pim-1 (KAI4018123, expressed in bacteria) was assayed with 0.8 μg/μL of histone H1 as substrate; HsCLK1 (NP_004062, cloned in pFAST-BAC, expressed in Sf9 insect cells) was assayed with 0.027 μg/μL of the peptide: […]; RnDYRK1A-kd (Rattus norvegicus, amino acids 1–499, pGEX-2TK, expressed in bacteria, gift from Dr. W. Becker, Aachen, Germany) was tested in the presence of 0.033 μg/μL of the peptide: […].
In general terms: In ADP-Glo the light output rises with the ADP produced.

The next experiment has as its target T2, HsCLK1 (Homo sapiens, UniProt P49759).
T2 construct: made in house; host or cells: Sf9 insect cells
Kind of experiment: ADP-Glo in vitro kinase inhibition assay, CLK1. The format is biochemical. As to conditions: 10 μM ATP, read-out: CLK1 % residual activity; for remaining activity at 1 µM: 1 μM compound; for remaining activity at 10 µM: 10 μM compound. As for the experimental part: as §1, §2, §3

The next experiment has as its target T3, CDK5/p25 (Homo sapiens, UniProt Q00535).
T3 construct: made in house; host or cells: bacteria
The experiment can be described thus: ADP-Glo in vitro kinase inhibition assay, CDK5/p25. The format is biochemical. As to conditions: 10 μM ATP, read-out: CDK5 % residual activity; for remaining activity at 1 µM: 1 μM compound; for remaining activity at 10 µM: 10 μM compound. As for the experimental part:
as §1, §2, §3

Another experiment deals with T4, HsCDK9/CyclinT (Homo sapiens, UniProt P50750).
T4 construct: made in house; host or cells: Sf9 insect cells (baculovirus)
T4 sequence (P50750 whole entry): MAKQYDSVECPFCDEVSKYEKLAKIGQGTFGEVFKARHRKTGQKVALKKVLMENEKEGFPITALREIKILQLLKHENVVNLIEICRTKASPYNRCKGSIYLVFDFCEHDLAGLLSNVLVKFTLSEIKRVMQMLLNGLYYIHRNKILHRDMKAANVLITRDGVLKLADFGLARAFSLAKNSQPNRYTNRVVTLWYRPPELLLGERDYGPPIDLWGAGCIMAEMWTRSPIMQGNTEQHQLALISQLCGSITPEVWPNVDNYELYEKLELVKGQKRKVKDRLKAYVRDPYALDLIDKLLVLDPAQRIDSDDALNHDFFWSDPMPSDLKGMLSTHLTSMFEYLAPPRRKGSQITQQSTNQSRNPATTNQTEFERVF
T4 sequence (O60563 whole entry partner): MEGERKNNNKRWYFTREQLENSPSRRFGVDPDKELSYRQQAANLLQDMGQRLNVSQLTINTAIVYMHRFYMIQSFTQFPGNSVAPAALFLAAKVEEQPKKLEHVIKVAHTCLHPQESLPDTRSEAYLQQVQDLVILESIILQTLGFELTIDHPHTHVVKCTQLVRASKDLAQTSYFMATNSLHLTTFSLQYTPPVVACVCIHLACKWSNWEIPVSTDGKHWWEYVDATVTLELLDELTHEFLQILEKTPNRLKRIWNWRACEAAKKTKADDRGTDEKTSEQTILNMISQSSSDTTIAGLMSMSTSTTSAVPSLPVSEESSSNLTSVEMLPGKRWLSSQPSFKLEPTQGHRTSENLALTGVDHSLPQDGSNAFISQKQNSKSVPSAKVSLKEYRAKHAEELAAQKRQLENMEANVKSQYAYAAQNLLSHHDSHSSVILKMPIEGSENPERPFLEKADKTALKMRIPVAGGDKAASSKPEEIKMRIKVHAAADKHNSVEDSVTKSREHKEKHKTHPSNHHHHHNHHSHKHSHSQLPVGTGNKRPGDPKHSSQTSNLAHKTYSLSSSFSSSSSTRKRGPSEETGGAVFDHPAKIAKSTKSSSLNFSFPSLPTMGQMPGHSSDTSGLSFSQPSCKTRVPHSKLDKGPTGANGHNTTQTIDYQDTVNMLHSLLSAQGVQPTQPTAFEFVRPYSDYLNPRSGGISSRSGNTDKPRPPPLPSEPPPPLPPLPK
The experiment can be described thus: ADP-Glo in vitro kinase inhibition assay, CDK9/CyclinT. To be noted: 10 μM ATP, read-out: CDK9 % residual activity; for remaining activity at 1 µM: 1 μM compound; for remaining activity at 10 µM: 10 μM compound. Format: biochemical. As for the experimental part: as §1, §2, §3

The target in the next experiment is T5, RnDYRK1A-kd (Rattus norvegicus, UniProt Q63470).
T5 construct: Rattus norvegicus, amino acids 1–499, pGEX-2TK; made in house; host or cells: bacteria
The experiment can be described thus: ADP-Glo in vitro kinase inhibition assay, DYRK1A. The format is biochemical. As to conditions: 10 μM ATP, read-out: DYRK1A % residual activity; for remaining activity at 1 µM: 1 μM compound; for remaining activity at 10 µM: 10 μM compound. As for the experimental part: as §1, §2, §3

The target of another experiment is T6, HsCK1ε (Homo sapiens, UniProt P49674).
T6 construct: made in house; host or cells: Sf9 insect cells
T6 sequence (P49674 whole entry): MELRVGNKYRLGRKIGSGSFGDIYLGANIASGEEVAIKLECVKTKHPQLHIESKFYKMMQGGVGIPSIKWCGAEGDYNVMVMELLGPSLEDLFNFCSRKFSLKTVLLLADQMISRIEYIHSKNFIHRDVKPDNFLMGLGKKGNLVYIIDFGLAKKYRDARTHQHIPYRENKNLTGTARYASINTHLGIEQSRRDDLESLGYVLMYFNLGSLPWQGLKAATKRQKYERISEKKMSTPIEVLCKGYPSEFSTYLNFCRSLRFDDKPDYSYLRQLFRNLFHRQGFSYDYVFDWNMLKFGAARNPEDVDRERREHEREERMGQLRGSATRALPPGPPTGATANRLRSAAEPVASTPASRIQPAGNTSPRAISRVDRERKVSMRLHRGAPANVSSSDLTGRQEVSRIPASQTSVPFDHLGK
The experiment can be described thus: ADP-Glo in vitro kinase inhibition assay, CK1ε. Format: biochemical. To be noted: 10 μM ATP, read-out: CK1 % residual activity; for remaining activity at 1 µM: 1 μM compound; for remaining activity at 10 µM: 10 μM compound. As for the experimental part:
as §1, §2, §3

The next experiment addresses T7, HsHaspin-kd (Homo sapiens, UniProt Q8TF76).
T7 construct: kinase domain, amino acids 470–798 cloned in pGEX-6P-3; made in house; host or cells: bacteria
T7 sequence (Q8TF76 470-798): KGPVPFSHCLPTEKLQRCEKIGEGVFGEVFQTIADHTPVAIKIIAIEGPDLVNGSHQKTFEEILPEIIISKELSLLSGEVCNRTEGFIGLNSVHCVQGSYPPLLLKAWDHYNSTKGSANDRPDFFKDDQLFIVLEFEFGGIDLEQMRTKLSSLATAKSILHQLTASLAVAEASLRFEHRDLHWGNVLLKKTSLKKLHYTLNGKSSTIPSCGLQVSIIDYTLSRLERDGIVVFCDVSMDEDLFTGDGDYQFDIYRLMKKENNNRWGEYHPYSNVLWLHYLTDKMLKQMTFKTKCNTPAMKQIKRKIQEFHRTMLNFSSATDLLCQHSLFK
Kind of experiment: ADP-Glo in vitro kinase inhibition assay, Haspin. The format is biochemical. As to conditions: 10 μM ATP, duplicate; for remaining activity at 1 µM: 1 μM compound; for remaining activity at 1 µM / remaining activity at 10 µM: read-out: Haspin % residual activity; for remaining activity at 10 µM: 10 μM compound. As for the experimental part:
as §1, §2, §3

In a further experiment the target is T8, Pim-1 (Homo sapiens, UniProt P11309).
T8 construct: made in house; host or cells: bacteria
T8 sequence (P11309 whole entry): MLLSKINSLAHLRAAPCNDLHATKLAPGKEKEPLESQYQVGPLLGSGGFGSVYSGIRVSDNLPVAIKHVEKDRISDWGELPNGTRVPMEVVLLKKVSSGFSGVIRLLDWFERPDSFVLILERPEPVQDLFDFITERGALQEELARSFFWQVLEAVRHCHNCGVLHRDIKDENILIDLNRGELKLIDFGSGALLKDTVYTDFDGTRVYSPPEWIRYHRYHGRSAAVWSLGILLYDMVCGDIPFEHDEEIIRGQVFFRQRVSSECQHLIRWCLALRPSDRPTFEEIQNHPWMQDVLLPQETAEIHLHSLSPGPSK
The experiment can be described thus: ADP-Glo in vitro kinase inhibition assay, Pim-1. The format is biochemical. To be noted: 10 μM ATP, read-out: PIM1 % residual activity; for remaining activity at 1 µM: 1 μM compound; for remaining activity at 10 µM: 10 μM compound. As for the experimental part: as §1, §2, §3

The subject of another experiment is Haspin. To be noted: Figure 2; cited from earlier work.

T1 sequence (P49841 whole entry): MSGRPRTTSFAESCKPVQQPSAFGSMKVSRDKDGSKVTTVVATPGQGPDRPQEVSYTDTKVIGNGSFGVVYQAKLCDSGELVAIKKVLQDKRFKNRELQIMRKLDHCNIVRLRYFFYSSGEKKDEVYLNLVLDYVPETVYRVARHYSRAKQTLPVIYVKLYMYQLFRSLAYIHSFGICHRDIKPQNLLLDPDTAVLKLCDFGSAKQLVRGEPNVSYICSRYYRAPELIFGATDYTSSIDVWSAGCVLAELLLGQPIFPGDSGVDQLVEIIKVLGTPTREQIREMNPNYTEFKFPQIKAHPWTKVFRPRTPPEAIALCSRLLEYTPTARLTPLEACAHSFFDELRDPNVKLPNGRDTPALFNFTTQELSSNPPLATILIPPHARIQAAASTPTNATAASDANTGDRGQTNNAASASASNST
T2 sequence (P49759 whole entry): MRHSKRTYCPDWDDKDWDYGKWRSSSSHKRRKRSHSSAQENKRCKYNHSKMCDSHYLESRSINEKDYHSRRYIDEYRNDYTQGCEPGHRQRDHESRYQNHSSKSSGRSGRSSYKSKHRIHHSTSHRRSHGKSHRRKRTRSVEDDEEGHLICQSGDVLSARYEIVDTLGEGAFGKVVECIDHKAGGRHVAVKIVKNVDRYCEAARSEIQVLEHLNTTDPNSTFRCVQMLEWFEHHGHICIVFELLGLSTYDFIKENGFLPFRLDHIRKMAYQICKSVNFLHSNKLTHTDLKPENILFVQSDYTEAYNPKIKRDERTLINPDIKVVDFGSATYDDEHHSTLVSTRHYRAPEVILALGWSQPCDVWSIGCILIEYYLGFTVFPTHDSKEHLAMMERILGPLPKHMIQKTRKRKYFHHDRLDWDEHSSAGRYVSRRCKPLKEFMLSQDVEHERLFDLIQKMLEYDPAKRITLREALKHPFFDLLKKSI
T3 sequence (Q00535 whole entry): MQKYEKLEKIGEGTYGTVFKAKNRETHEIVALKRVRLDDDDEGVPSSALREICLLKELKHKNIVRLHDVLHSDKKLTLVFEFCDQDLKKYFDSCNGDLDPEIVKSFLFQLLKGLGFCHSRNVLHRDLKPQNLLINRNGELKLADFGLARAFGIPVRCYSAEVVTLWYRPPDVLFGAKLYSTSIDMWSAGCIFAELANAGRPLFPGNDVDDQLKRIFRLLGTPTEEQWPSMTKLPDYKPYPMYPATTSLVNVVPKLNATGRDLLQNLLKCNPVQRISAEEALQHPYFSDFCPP
T3 sequence (Q15078 99-307 partner limits assumed): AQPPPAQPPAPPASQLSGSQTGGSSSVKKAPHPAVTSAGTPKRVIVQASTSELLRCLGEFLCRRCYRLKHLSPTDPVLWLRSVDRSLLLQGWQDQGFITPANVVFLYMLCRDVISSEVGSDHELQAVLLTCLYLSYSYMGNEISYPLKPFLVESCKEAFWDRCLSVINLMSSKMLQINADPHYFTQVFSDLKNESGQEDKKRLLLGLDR

Broadly, the IC50 is the midpoint of a concentration-inhibition curve. On to `COC(=O)CCc1c[nH]c2cc3cnccc3cc12` [Compound 10, Methyl 3-(1H-Pyrrolo[3,2-g]isoquinolin-3-yl)propanoate], for which the remaining activity at 1 µM at HsGSK3β turned out to be 100%; at HsCLK1 it was 91%; on CDK5/p25, 100%; on HsCDK9/CyclinT, 90%; at RnDYRK1A-kd it was 72%; at HsCK1ε, 100%. Further, the remaining activity at 1 µM at HsHaspin-kd was 45%; on Pim-1 it was 72%. The remaining activity at 10 µM on HsGSK3β turned out to be 99%; on HsCLK1, 60%; on CDK5/p25 it was 100%; at HsCDK9/CyclinT it was 72%; on RnDYRK1A-kd, 32%; at HsCK1ε, 97%. Besides, the remaining activity at 10 µM on HsHaspin-kd was determined as 10%; on Pim-1, 52%. The molecule further showed an IC50 against HsHaspin-kd of 82.1 nM.
On to `Clc1cc(-c2c[nH]c3cc4cnccc4cc23)ccn1` [Compound 2, 3-(2-Chloro-pyridin-4-yl)-1H-pyrrolo[3,2-g]isoquinoline], for which the remaining activity at 1 µM was determined as 76% at HsGSK3β; 56% on HsCLK1; 100% on CDK5/p25; 81% at HsCDK9/CyclinT; 20% on RnDYRK1A-kd; 79% at HsCK1ε. Further, the remaining activity at 1 µM at HsHaspin-kd worked out at 9%; at Pim-1, 20%. Also, the remaining activity at 10 µM on HsGSK3β came to 81%; on HsCLK1, 27%; on CDK5/p25, 100%; at HsCDK9/CyclinT, 56%; on RnDYRK1A-kd, 16%; at HsCK1ε, 54%. The remaining activity at 10 µM came out at 8% on HsHaspin-kd and 14% on Pim-1. The molecule further returned a half-inhibitory concentration (IC50) against HsHaspin-kd of 10.1 nM.
For `CC(C)(C)OC(=O)CCc1c[nH]c2cc3cnccc3cc12` [Compound 11, tert-Butyl 3-(1H-Pyrrolo[3,2-g]isoquinolin-3-yl)propanoate], the remaining activity at 1 µM on HsGSK3β stood at 83%; on HsCLK1, 98%; on CDK5/p25, 100%; at HsCDK9/CyclinT, 100%; on RnDYRK1A-kd, 58%; on HsCK1ε, 98%. In addition, the remaining activity at 1 µM on HsHaspin-kd and at Pim-1 was 70% throughout. Moreover, the remaining activity at 10 µM at HsGSK3β was determined as 94%; at HsCLK1 it was 81%; on CDK5/p25, 100%; on HsCDK9/CyclinT, 86%; at RnDYRK1A-kd, 31%; on HsCK1ε, 81%. Also, the remaining activity at 10 µM came to 52% on HsHaspin-kd and 60% on Pim-1.
For `Nc1ncnc2c1c(I)cn2[C@@H]1O[C@H](CO)[C@@H](O)[C@H]1O` [5-Iodotubercidin, 5-iodotubercidin], in the experiment with Haspin, the IC50 is […].
Turning to `COc1ccc2nc3ccc(OC)cc3c(SCCCN)c2c1` [LDN-192960], the concentration for half-maximal inhibition (IC50) with Haspin is […].
Consider `COc1ccc2c(c1)[nH]c1c(C)nccc12` [Harmine, harmine], for which, in the experiment with Haspin, the IC50 is 590 nM.
On to harmol, for which the IC50 in the experiment with Haspin was 770 nM.
With `Cc1ccc(NC(=O)c2ccc3c(c2)c(CNCCN2CCNCC2)cn3C)cc1C` [Compound A], the IC50 in the experiment on Haspin was 0.01 nM.
Regarding `COc1ccc2nc3ccc(Cl)cc3c(SCCCN)c2c1` [LDN-209929], the IC50 in the experiment on Haspin is 55 nM.
On to `CC(C)(C)OC(=O)/C=C/c1c[nH]c2cc3cnccc3cc12` [Compound 9, tert-Butyl (E)-3-(1H-Pyrrolo[3,2-g]isoquinolin-3-yl)prop-2-enoate], for which the remaining activity at 1 µM was 80% at HsGSK3β; 86% at HsCLK1; 100% on CDK5/p25; 79% at HsCDK9/CyclinT; 51% at RnDYRK1A-kd; 92% on HsCK1ε. The figures for the remaining activity at 1 µM on HsHaspin-kd and at Pim-1 were 30% and 42%, respectively. The remaining activity at 10 µM was 80% on HsGSK3β; 48% at HsCLK1; 100% on CDK5/p25; 32% at HsCDK9/CyclinT; 28% on RnDYRK1A-kd; 87% at HsCK1ε. Besides, the remaining activity at 10 µM on HsHaspin-kd came to 12%; on Pim-1, 21%. In addition, the IC50 against HsHaspin-kd amounted to 392 nM.
Usually Ki stands for a measure of affinity in units of concentration, obtained from inhibition or displacement. As to `C#Cc1cn([C@@H]2S[C@H](CN=[N+]=[N-])[C@@H](O)[C@H]2O)c2ncnc(N)c12` [LJ-4827], on Haspin, the inhibition constant Ki was 0.465 nM.
